Patent publication US8481528B2 (Hoffmann-La Roche Inc., priority 2010, dated 2013)
pKi: −log10 of the molar value. Structures can show the parent of a compound that is named as a salt.

target: T1, human V1a receptor (Homo sapiens, UniProt P37288); assay: human V1a receptor binding (3H-Vasopressin SPA, HEK293 membranes); details: not given
T1 construct: expressed in transfected cells; host or cells: HEK293 cells, transiently transfected; cell membranes
Procedure: The human V1a receptor was cloned by RT-PCR from total human liver RNA. The coding sequence was subcloned in an expression vector after sequencing to confirm the identity of the amplified sequence. […] Cell membranes were prepared from HEK293 cells transiently transfected with the expression vector and grown in 20 liter fermenters with the following protocol.
50 g of cells are resuspended in 30 ml freshly prepared ice cold Lysis buffer (50 mM HEPES, 1 mM EDTA, 10 mM magnesium dichloride adjusted to pH=7.4+complete cocktail of protease inhibitor (Roche Diagnostics)). Homogenized with Polytron for 1 min and sonicated on ice for 2×2 minutes at 80% intensity (Vibracell sonicator). The preparation is centrifuged 20 min at 500 g at 4° C., the pellet is discarded and the supernatant centrifuged 1 hour at 43′000 g at 4° C. (19'000 rpm). The pellet is resuspended in 12.5 ml Lysis buffer+12.5 ml sucrose 20% and homogenized using a Polytron for 1-2 min. The protein concentration is determined by the Bradford method and aliquots are stored at −80° C. until use. For binding studies 60 mg Yttrium silicate SPA beads (Amersham®) are mixed with an aliquot of membrane in binding buffer (50 mM Tris, 120 mM sodium chloride, 5 mM potassium chloride, 2 mM calcium dichloride, 10 mM magnesium dichloride) for 15 minutes with mixing. 50 μl of bead/membrane mixture is then added to each well of a 96 well plate, followed by 50 μl of 4 nM 3H-Vasopressin (American Radiolabeled Chemicals). For total binding measurement 100 μl of binding buffer are added to the respective wells, for non-specific binding 100 μl of 8.4 mM cold vasopressin and for compound testing 100 μl of a serial dilution of each compound in 2% dimethyl sulfoxide. The plate is incubated 1 h at room temperature, centrifuged 1 min at 1000 g and counted on a Packard Top-Count. Non-specific binding counts are subtracted from each well and data is normalized to the maximum specific binding set at 100%. To calculate an IC50 the curve is fitted using a non-linear regression model (XLfit) and the Ki is calculated using the Cheng-Prussoff equation.

T1 sequence (P37288 whole entry): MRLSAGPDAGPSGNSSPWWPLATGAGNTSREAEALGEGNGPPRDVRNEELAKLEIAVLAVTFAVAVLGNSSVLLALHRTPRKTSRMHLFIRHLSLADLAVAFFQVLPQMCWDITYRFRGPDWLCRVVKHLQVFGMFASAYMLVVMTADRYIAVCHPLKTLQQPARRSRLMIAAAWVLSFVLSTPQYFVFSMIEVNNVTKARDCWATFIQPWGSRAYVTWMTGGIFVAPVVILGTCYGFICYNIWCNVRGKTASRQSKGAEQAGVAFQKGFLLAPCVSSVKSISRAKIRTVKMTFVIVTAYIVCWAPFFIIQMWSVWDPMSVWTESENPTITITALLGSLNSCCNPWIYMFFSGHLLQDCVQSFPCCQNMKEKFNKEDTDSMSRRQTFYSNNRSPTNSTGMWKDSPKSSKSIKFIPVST

Structure (SMILES) | pKi
CN1Cc2cc(Cl)ccc2-n2c(nnc2[C@H]2CC[C@@H](c3noc4ccccc43)CC2)C1 [Example 4, cis-1-(4-Benzo[d]isoxazol-3-yl-cyclohexyl)-8-chloro-5-methyl-5,6-dihydro-4H-2,3,5,10b-tetraaza-benzo[e]azulene] | 8.12

same assay, conditions: 3H-Vasopressin displacement, membranes of HEK293 cells transiently transfected with human V1a receptor; Ki by Cheng-Prusoff; read-out: pKi (hV1a) (converted)

Structure (SMILES) | Ki
CC(C)(C)OC(=O)N1Cc2cc(Cl)ccc2-n2c(nnc2[C@H]2CC[C@@H](c3nsc4ccccc43)CC2)C1 [Example 33, cis-1-(4-Benzo[d]isothiazol-3-yl-cyclohexyl)-8-chloro-4H,6H-2,3,5,10b-tetraaza-benzo[e]azulene-5-carboxylic acid tert-butyl ester] | 1.1 nM
Fc1ccc2onc([C@H]3CC[C@H](c4nnc5n4-c4ccc(Cl)cc4CNC5)CC3)c2c1 [Example 11, trans-8-Chloro-1-[4-(5-fluoro-benzo[d]isoxazol-3-yl)-cyclohexyl]-5,6-dihydro-4H-2,3,5,10b-tetraaza-benzo[e]azulene hydrochloride] | 2.09 nM
CS(=O)(=O)N1Cc2cc(Cl)ccc2-n2c(nnc2[C@H]2CC[C@H](c3nsc4ccccc43)CC2)C1 [Example 26, trans-1-(4-Benzo[d]isothiazol-3-yl-cyclohexyl)-8-chloro-5-methanesulfonyl-5,6-dihydro-4H-2,3,5,10b-tetraaza-benzo[e]azulene] | 0.302 nM
CN1Cc2cc(Cl)ccc2-n2c(nnc2[C@H]2CC[C@H](c3nsc4cccnc43)CC2)C1 [Example 29, trans-8-Chloro-1-(4-isothiazolo[4,5-b]pyridin-3-yl-cyclohexyl)-5-methyl-5,6-dihydro-4H-2,3,5,10b-tetraaza-benzo[e]azulene] | 0.794 nM
Clc1ccc2c(c1)CNCc1nnc([C@H]3CC[C@@H](c4noc5ccccc54)CC3)n1-2 [Example 3, cis-1-(4-Benzo[d]isoxazol-3-yl-cyclohexyl)-8-chloro-5,6-dihydro-4H-2,3,5,10b-tetraaza-benzo[e]azulene hydrochloride] | 11.2 nM
CN1Cc2cc(Cl)ccc2-n2c(nnc2[C@H]2CC[C@H](c3noc4cc(F)ccc43)CC2)C1 [Example 9, trans-8-Chloro-1-[4-(6-fluoro-benzo[d]isoxazol-3-yl)-cyclohexyl]-5-methyl-5,6-dihydro-4H-2,3,5,10b-tetraaza-benzo[e]azulene] | 1.2 nM
CN1Cc2cc(Cl)ccc2-n2c(nnc2[C@H]2CC[C@@H](c3nsc4ccccc43)CC2)C1 [Example 35, cis-1-(4-Benzo[d]isothiazol-3-yl-cyclohexyl)-8-chloro-5-methyl-5,6-dihydro-4H-2,3,5,10b-tetraaza-benzo[e]azulene] | 4.27 nM
